Data taken from ChEMBL document CHEMBL3507680, “University of Dundee, Gates Library screen for HepG2 cell viability”.

Test: Human HepG2 cell viability assay in 384 well format
Type: toxicity, cell-based
Set-up: dose 125 nL, time 70.5 hour; concentration not given beside the values
Conditions: HepG2 cells, read-out: Inhibition

Row | SMILES | cytotoxicity at 70.5 h [%]
1 | COc1cc2[nH]c(C(=O)O)cc2c(OC)c1C | -5.57
2 | CCOc1cc(-c2cc(=O)n3c(n2)CCCCC3)ccc1O | -20.5
3 | CSc1ccc(-n2nnc(C(=O)O)c2-c2ccccn2)cc1 | 11.2
4 | CC(C)c1ccc(-n2nnc(C(=O)O)c2-c2ccccn2)cc1 | -24.1
5 | Cc1ccc(S(=O)(=O)NC2=NCN(CCc3cccs3)CN2)cc1 | -14.3
6 | O=S(=O)(NC1=NCN(CCc2cccs2)CN1)c1ccc(Br)cc1 | -18.9
7 | CC(C)Cn1c(=O)nc2n1C(=O)N(c1ccc(F)cc1)C2 | -25.8
8 | O=C1CC(c2ccc(C(F)(F)F)cc2)c2c(n3ccsc3nc2=O)N1 (stereo unspecified) | -22.1
9 | CC(C)c1nnc2ccc(N3CCC(C(=O)O)CC3)nn12 | -25.9
10 | CNc1oc(-c2ccc(OC)c(S(=O)(=O)N3CCCC3)c2)nc1C#N | -21.8
11 | NC(=O)C1CCN(C(=O)CCn2ccc3ccc(F)cc32)CC1 | -6.99
12 | Cc1c(C)n(-c2ccccn2)c2nc3c(c(N)c12)CCCCC3 | -10.8
13 | O=c1ccc(-c2cccs2)nn1CN1CCOC(c2ccccc2)C1 (stereo unspecified) | -21.3
14 | O=c1ccc(-c2cccs2)nn1CN1CCN(c2ccccn2)CC1 | -23.6
15 | O=C1CC(c2ccc(Cl)c(Cl)c2)c2c(n3ccsc3nc2=O)N1 (stereo unspecified) | 10
16 | CC(C)n1c(=O)nc2n1C(=O)N(c1ccc(Cl)cc1)C2 | -21.8
17 | Cc1oc(-c2nc(C#N)c(NC(C)C)o2)cc1S(=O)(=O)N1CCCC1 | -25.3
18 | O=C(c1cnc2ccc(F)cc2c1NCc1ccco1)N1CCCC1 | 28.7
19 | CCCN(CCC)c1ncc(S(=O)(=O)c2ccccc2)c(N)n1 | -15.1
20 | CCN(CC)c1ncc(S(=O)(=O)c2cccc(C)c2)c(N)n1 | 25.6
21 | Cc1ccc(-c2cc(C(=O)O)sn2)cc1 | -15.1

Row | SMILES | cytotoxicity at 70.5 h [%]
22 | Cc1c(C(=O)O)cnn1-c1ccc(-c2nc(C(C)(C)C)no2)cn1 | -8.45
23 | Cc1cccc(Cn2c(=O)[nH]c3csnc3c2=O)c1 | -4.48
24 | CCc1c(C)n(CCC#N)c2nc3ccccc3n2c1=O | -9.18
25 | COc1ccc(-c2nnsc2C(=O)N2CCOCC2)cc1 | -11.2
26 | CC1(C)CC(=O)c2cnc3nc(N4CCOCC4)nc(O)c3c2C1 | -1.04
27 | COc1ccccc1C1CC(=O)Nc2c1c(=O)[nH]n2C1CCCC1 (stereo unspecified) | -11.5
28 | CCOC(=O)CC(c1ccc(OC)c(OC)c1)c1c(O)n[nH]c1C (stereo unspecified) | -15.2
29 | COc1ccccc1C1SCC(=O)Nc2c1c(=O)[nH]n2C1CCCCC1 (stereo unspecified) | 20.9
30 | CC(C)(C)c1csc(CCNC(=O)C(c2ccccc2)n2cnnn2)n1 (stereo unspecified) | -0.915
31 | COc1cccc(-n2nc(C(C)=O)c(C(C)=O)c2C)c1 | -15.4
32 | Cc1cs/c(=N\C(=O)Cn2nc(N3CCC(C)CC3)ccc2=O)[nH]1 | -9.83
33 | CNc1cncc(C2CCN(C(=O)c3coc(C)n3)CC2)n1 | 24.2
34 | CCC1CNCc2cc3c(OC)ccc(OC)c3nc2O1 (stereo unspecified) | 12.3
35 | Cc1cc(-c2ccc(=O)n(CCNC(=O)C3CC3)n2)c(C)o1 | 0.992
36 | CN1CCN([C@@H]2CN(C(=O)c3cc4cccc(F)c4[nH]3)C[C@H]2O)CC1 | -1.94
37 | COCC(=O)N1Cc2nc3c(C)c(-c4cccs4)nn3c(O)c2C1 | -0.72
38 | COCCNC(=O)C(C)n1nc(-c2ccc(C)o2)cc(N)c1=O (stereo unspecified) | 39.4
39 | Cc1cc2c(cc1Cl)C=CC1(CCN(CC(=O)N3CCOCC3)CC1)O2 | 25.7
40 | COc1ccc(C(C)N(C)Cc2c(C(C)(C)C)[nH]c3ncccc23)cc1 (stereo unspecified) | 12.9
41 | CO[C@H]1CN(C(=O)c2cn3cc(C)ccc3n2)CC[C@@]12CCCO2 | -17.2
42 | CNC(=O)CCc1cc(C2CCCN2S(C)(=O)=O)nc(C)n1 (stereo unspecified) | -12.2

Row | SMILES | cytotoxicity at 70.5 h [%]
43 | c1ccc(CO[C@H]2CN(c3ncccn3)C[C@@]23CCCO3)cc1 | -11.5
44 | CN1CCCC1c1ccc(N2CCOCC2)cn1 (stereo unspecified) | -16.8
45 | CCN(CC)S(=O)(=O)N1CCCC1c1nnc2n1CCN(C)CC2 (stereo unspecified) | -10.9
46 | CN1C[C@H](c2ccccc2)[C@H]2CN(C(=O)Cc3ccc(O)cc3)CC[C@H]21 | 22.7
47 | Cc1ccc(-c2noc(C3CCN3C(=O)c3ccc(=O)[nH]n3)n2)s1 (stereo unspecified) | -4.22
48 | Cc1ccc(-c2noc(C3CCN3C(=O)c3cc[nH]n3)n2)s1 (stereo unspecified) | -14.3
49 | CC(=O)N[C@H]1CCO[C@@H](c2cccc(NC(=O)c3cccc(F)c3)c2)C1 | -8.41
50 | CN(C)C(=O)CN1CCC(c2c(C(N)=O)sc3ncccc23)C1 (stereo unspecified) | -5.25
51 | CN(C)S(=O)(=O)N1CCCC(c2nccnc2-c2cccc(Cl)c2)C1 (stereo unspecified) | -1.8
52 | Cn1cccc1C(=O)NCc1ccnc(C2CCCOC2)n1 (stereo unspecified) | -4.4
53 | O=C(CCc1ccc(Cl)cc1)N[C@@H]1CC[C@@H](O)[C@@H]1O | -6.03
54 | c1ccc(C2Cn3ccnc3CN2Cc2ncc[nH]2)cc1 (stereo unspecified) | -1.58
55 | Cc1cc(-c2cc3nc(C)c(C)c(NCC4COCCO4)n3n2)no1 (stereo unspecified) | -5.97
56 | O=C(c1cccnc1)N1CCOC(Cc2ccccc2Cl)C1 (stereo unspecified) | 0.0235
57 | Cn1ccc(C(=O)N2CCC(Cc3ccc4ncccc4c3)CC2)n1 | 14.8
58 | OCCc1cc(C2CCCN2c2ncccn2)n[nH]1 (stereo unspecified) | -2.35
59 | Cc1ccnc(C2COCCN2C)n1 (stereo unspecified) | -3.5
60 | CN(C)C(=O)CN1CCCC(c2nccnc2-c2cccc(Cl)c2)C1 (stereo unspecified) | 1.03
61 | CNC(=O)c1sc2ncccc2c1C1CCN(C(=O)CCOC)C1 (stereo unspecified) | -8.16
62 | CC(C)(C)C(=O)N1CCCC1c1cc(CO)[nH]n1 (stereo unspecified) | -1.34
63 | COc1ccc(C2CN(c3cc(C)ncn3)CCN2C(C)=O)cc1 (stereo unspecified) | -5.95

Row | SMILES | cytotoxicity at 70.5 h [%]
64 | CN1CCc2nc(C3CCCN(S(=O)(=O)c4ccccc4)C3)ncc2C1 (stereo unspecified) | -1.43
65 | CC(NC(=O)C(C)(C)C)c1cc(O)nc(-c2cccnc2)n1 (stereo unspecified) | -5.99
66 | CCc1c(C)nn2c(O)cc(C3CCN(C(=O)c4cnn(C)c4)C3)nc12 (stereo unspecified) | -0.531
67 | Cc1cc(C(=O)N2CCN(c3ncc4c(n3)CCOC4)CC2)sc1C | 2.24
68 | Cc1sc(Oc2ccccc2Cl)nc1C(=O)O | 7.28
69 | CCCn1cc(CN2CCOCC2c2[nH]ncc2C)cn1 (stereo unspecified) | -2.99
70 | CCOCC(=O)N1CCC(C)(c2nccs2)CC1 | 13.6
71 | CN(C)Cc1cccc(-c2cccnc2C(=O)NCc2cn(C)cn2)c1 | -1.14
72 | O=C(Cc1cccs1)NCc1ccnc(C2CCCOC2)n1 (stereo unspecified) | 3.29
73 | Cc1cc(C)nc(N2CC[C@H](Oc3ccccc3F)[C@@H](O)CC2)n1 | -3.75
74 | COCC(=O)N1CCc2nc(-c3cnccn3)nc(O)c2C1 | -8.12
75 | COc1ccc(CNCC(C)Oc2ccccn2)cc1Cl (stereo unspecified) | -8.86
76 | Cc1ccc(CNCC(C)Oc2ccccn2)cc1 (stereo unspecified) | -33.7
77 | CC(CNCc1ccc(Br)cc1)Oc1ccccn1 (stereo unspecified) | 2.54
78 | CCC(=O)N1C[C@@H](C(=O)NC)[C@H](c2ccnc(N3CCCC3)n2)C1 | -3.94
79 | CN(CCc1ccccc1)Cc1c(C2CCNCC2)[nH]c2ncccc12 | -6.11
80 | CCc1onc(C)c1C(=O)N1CCN(c2ncc3c(n2)CCOC3)CC1 | -1.33
81 | Cc1nc(O)cc(C2(C)CCCNC2)n1 (stereo unspecified) | -3.13
